According to PMC11951083, “Highly Specific Miniaturized Fluorescent Monoacylglycerol Lipase Probes Enable Translational Research” (Journal of the American Chemical Society, 2025):

Key:
AR(h) = molecular target: T1, AR(h) (Homo sapiens, UniProt P10275); assay: AR(h) (agonist radioligand); details: read-out: Inhibition AR(h) (agonist radioligand)
T1 sequence (P10275 1-920): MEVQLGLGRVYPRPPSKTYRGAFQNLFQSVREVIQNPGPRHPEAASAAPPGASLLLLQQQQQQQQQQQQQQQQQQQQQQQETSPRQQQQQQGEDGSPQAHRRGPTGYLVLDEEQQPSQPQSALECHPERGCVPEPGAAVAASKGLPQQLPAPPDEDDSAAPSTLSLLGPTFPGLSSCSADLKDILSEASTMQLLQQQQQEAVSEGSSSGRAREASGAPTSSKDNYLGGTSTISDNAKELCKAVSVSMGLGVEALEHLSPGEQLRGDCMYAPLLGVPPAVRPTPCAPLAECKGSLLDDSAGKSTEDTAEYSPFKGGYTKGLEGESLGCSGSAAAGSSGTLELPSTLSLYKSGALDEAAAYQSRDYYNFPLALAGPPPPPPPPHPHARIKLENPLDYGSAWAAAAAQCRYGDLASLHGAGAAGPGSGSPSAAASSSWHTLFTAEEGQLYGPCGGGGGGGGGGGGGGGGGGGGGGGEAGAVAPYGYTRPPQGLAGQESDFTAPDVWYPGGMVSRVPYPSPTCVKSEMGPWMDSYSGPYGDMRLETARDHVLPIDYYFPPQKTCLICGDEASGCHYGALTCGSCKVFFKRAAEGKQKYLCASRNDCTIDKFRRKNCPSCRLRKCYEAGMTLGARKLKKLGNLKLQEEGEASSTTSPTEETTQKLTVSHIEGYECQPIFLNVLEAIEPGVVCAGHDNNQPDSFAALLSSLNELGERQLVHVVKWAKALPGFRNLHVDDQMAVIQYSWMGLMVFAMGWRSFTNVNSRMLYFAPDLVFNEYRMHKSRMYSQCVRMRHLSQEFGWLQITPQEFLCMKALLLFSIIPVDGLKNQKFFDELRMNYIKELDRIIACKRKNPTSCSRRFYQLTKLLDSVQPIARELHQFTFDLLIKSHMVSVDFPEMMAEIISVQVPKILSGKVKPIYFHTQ

beta1 (h) = beta1 (h) (Homo sapiens, UniProt P08588); assay: beta1 (h) (agonist radioligand); details: read-out: Inhibition beta1 (h) (agonist radioligand)
acetylcholinesterase (h) = acetylcholinesterase (h) (Homo sapiens, UniProt P22303); assay: acetylcholinesterase (h); details: read-out: Inhibition acetylcholinesterase (h)
GR (h) = molecular target: T2, GR (h) (Homo sapiens, UniProt P04150); assay: GR (h) (agonist radioligand); details: read-out: Inhibition GR (h) (agonist radioligand)
T2 sequence (P04150 1-777): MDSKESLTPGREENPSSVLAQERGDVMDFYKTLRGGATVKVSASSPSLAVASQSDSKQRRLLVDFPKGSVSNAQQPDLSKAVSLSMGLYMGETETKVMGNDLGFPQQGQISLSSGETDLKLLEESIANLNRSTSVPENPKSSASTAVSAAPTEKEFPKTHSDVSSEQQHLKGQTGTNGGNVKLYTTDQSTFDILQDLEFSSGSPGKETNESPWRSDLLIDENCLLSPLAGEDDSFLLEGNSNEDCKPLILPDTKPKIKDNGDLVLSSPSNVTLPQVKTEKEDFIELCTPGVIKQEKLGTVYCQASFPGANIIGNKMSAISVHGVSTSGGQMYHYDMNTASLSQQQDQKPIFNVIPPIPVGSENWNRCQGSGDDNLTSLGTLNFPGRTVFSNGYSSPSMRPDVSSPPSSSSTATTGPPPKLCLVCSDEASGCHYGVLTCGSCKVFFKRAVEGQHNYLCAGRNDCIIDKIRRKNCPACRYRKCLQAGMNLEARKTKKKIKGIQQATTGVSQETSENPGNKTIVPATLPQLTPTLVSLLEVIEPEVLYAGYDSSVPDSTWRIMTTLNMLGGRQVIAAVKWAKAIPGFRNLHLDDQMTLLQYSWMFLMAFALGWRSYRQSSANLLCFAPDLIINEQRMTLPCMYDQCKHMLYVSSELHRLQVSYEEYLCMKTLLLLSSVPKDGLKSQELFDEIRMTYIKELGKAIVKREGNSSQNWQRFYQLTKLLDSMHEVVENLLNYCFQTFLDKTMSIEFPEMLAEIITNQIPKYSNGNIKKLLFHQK

A3 (h) = molecular target: T3, A3 (h) (Homo sapiens, UniProt P0DMS8); assay: A3 (h) (agonist radioligand); details: read-out: Inhibition A3 (h) (agonist radioligand)
T3 sequence (P0DMS8 1-318): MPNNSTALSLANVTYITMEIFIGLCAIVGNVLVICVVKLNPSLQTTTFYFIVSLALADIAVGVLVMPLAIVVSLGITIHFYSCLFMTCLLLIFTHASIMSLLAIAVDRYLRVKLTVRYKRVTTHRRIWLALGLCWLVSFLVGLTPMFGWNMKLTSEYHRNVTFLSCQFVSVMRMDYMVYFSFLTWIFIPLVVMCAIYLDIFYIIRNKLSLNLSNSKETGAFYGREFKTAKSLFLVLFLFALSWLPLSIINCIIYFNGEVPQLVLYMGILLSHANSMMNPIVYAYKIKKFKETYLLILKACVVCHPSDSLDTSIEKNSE

FP (h) = FP (h) (Homo sapiens, UniProt P43088); assay: FP (h) (agonist radioligand); details: read-out: Inhibition FP (h) (agonist radioligand)
PPARgamma (h) = molecular target: T4, PPARgamma (h) (Homo sapiens, UniProt P37231); assay: PPARgamma (h) (agonist radioligand); details: read-out: Inhibition PPARgamma (h) (agonist radioligand)
T4 sequence (P37231 1-505): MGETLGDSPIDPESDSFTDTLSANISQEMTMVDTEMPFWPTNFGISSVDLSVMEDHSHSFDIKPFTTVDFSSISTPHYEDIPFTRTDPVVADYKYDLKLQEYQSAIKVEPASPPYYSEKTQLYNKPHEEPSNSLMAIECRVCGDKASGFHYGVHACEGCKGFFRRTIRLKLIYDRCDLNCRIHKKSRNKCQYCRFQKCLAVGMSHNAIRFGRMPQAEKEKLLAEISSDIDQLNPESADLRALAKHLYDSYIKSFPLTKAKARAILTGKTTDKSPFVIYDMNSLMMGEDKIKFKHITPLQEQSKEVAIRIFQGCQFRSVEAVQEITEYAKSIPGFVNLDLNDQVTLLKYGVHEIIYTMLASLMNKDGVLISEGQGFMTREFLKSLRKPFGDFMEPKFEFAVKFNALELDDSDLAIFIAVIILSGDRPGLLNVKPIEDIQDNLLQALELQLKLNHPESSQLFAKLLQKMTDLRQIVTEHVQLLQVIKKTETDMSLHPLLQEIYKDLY

acetylcholinesterase (h), sequence (P22303 32-614): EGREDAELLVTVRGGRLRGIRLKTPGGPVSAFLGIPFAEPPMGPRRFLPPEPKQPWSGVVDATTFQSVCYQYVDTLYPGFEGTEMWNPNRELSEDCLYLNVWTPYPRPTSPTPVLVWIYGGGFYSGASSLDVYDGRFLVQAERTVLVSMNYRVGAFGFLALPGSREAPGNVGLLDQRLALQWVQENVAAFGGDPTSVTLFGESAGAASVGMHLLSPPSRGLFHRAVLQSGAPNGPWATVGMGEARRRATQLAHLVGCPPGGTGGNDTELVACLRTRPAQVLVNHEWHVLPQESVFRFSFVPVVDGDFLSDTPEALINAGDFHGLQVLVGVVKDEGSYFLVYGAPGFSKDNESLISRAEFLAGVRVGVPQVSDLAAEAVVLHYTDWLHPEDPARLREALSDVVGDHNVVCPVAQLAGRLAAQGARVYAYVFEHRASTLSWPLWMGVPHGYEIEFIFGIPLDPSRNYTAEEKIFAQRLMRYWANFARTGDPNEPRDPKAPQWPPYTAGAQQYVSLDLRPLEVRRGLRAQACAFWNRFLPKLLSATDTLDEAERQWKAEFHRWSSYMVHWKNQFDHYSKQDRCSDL
beta1 (h), sequence (P08588 whole entry): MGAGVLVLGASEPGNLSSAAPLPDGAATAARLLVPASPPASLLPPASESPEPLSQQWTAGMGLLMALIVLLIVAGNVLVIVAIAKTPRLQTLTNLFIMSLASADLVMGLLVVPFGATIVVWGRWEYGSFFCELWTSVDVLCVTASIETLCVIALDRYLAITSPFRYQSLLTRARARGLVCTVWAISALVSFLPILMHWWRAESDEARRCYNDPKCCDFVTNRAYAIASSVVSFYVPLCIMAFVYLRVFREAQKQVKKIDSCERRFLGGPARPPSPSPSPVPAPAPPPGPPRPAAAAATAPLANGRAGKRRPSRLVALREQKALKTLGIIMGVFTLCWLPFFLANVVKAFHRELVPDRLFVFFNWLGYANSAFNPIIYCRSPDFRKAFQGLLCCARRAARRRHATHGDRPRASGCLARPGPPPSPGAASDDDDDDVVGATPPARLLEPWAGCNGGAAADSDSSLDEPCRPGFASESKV
FP (h), sequence (P43088 whole entry): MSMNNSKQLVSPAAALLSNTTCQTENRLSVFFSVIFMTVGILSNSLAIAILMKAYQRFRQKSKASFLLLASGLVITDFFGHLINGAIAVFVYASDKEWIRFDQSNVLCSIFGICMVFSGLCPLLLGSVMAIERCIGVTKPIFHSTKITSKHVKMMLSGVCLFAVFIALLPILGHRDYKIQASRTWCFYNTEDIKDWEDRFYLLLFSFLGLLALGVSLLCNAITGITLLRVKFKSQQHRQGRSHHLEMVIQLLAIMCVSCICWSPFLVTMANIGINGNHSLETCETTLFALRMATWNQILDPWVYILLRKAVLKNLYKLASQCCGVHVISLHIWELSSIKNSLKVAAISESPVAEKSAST

| SMILES | inhibition at 10 µM (AR(h)) [%] | inhibition at 10 µM (beta1 (h)) [%] | inhibition at 10 µM (acetylcholinesterase (h)) [%] | inhibition at 10 µM (GR (h)) [%] | inhibition at 10 µM (A3 (h)) [%] | inhibition at 10 µM (FP (h)) [%] | inhibition at 10 µM (PPARgamma (h)) [%] |
| --- | --- | --- | --- | --- | --- | --- | --- |
| O=C(O[C@H](CO)C(F)(F)F)N1CC2(CC(CC3=C4C=CC=[N+]4[B-](F)(F)n4cccc43)C2)C1 [Compound 1] | -14.2 | -3.3 | -8.2 | 13.9 | -1.6 | 11.6 | 74.3 |
| O=C(OC(C(F)(F)F)C(F)(F)F)N1CC2(CC(CC3=C4C=CC=[N+]4[B-](F)(F)n4cccc43)C2)C1 [Compound 2] | 4.2 | -1.7 | -2.9 | 9.1 | 45 | 6.5 | 56.3 |
| O=C(OC(C(F)(F)F)C(F)(F)F)N1CC2(CC(CC3=C4C=CC(c5ccc[nH]5)=[N+]4[B-](F)(F)n4cccc43)C2)C1 [Compound 2a] | 6 | -3.3 | 2.5 | 26.3 | 34.8 | 4.4 | 20 |
| O=C1CO[C@H]2CCN(C(=O)N3CC4(CC(CC5=C6C=CC(c7ccc[nH]7)=[N+]6[B-](F)(F)n6cccc65)C4)C3)C[C@H]2N1 [Compound 4a] | -1.4 | -1.2 | 1.8 | 48.1 |  | 16.3 | 20 |
| O=C(N1CC2(CC(CC3=C4C=CC=[N+]4[B-](F)(F)n4cccc43)C2)C1)N1CC2(CC(n3cnc(C4CC4)n3)C2)C1 [Compound 5] | -19.8 | 0.6 | -14.4 | 17.1 | 17.7 | 10.4 | 5.6 |
